Assay results taken from the supplement of paper PMC10307832.

Columns and labels:
Experiment in all cases: relative viability (nuclei count vs DMSO), 5 days (fraction); higher = more cells survive
[1] = compound: CC1=C(C(=NN1)C)CC2=C(C3=C(S2)N(C(=O)N(C3=O)C)CC(C)C)C(=O)N4C[C@@H](CO4)O + C[C@]1(O)C[C@@H](c2nc(-c3ccc4ccc(-c5ccccc5)nc4c3)c3c(N)nccn32)C1 [Linsitinib] (partner 1 µM)
How it was run: (§1)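 Lung cancer cell lines in 1536-well plates were dosed by pin tool the day after seeding, either with one drug alone or with a fixed anchor-drug dose plus five library-drug doses (not always all listed) in √10 steps. After 5 days, cells were fixed and their nuclei stained in one step (final 0.05% Triton X-100, 1% formaldehyde, 1 ug/ml Hoechst), then counted on 4× images. Relative viability is the nuclei count in treated wells divided by that in vehicle wells. Values are medians of duplicate plates.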

[2] = compound: CC1=C(C(=NN1)C)CC2=C(C3=C(S2)N(C(=O)N(C3=O)C)CC(C)C)C(=O)N4C[C@@H](CO4)O + Cc1nc(Nc2ncc(C(=O)Nc3c(C)cccc3Cl)s2)cc(N2CCN(CCO)CC2)n1 [Dasatinib] (partner 0.075 µM)
How it was run: as §1

[3] = compound: Cc1ccccc1C(C(=O)NC1CCCCC1)N(C(=O)Cn1ccnc1C)c1cccc(F)c1 [IDH-C35] + CS(=O)(=O)CCNCc1ccc(-c2ccc3ncnc(Nc4ccc(OCc5cccc(F)c5)c(Cl)c4)c3c2)o1 [Lapatinib] (partner 2 µM)
How it was run: as §1

[4] = compound: CC1=C(C(=NN1)C)CC2=C(C3=C(S2)N(C(=O)N(C3=O)C)CC(C)C)C(=O)N4C[C@@H](CO4)O + Nc1nc2[nH]cc(CCc3ccc(C(=O)N[C@@H](CCC(=O)O)C(=O)O)cc3)c2c(=O)[nH]1 [Pemetrexed] (partner 0.2 µM)
How it was run: as §1

Cell Line	relative viability ([1]; first compound 0.0025 µM)	relative viability ([1]; first compound 0.007906 µM)	relative viability ([1]; first compound 0.025 µM)	relative viability ([1]; first compound 0.07906 µM)	relative viability ([1]; first compound 0.25 µM)	relative viability ([2]; first compound 0.0025 µM)	relative viability ([2]; first compound 0.007906 µM)	relative viability ([2]; first compound 0.025 µM)	relative viability ([2]; first compound 0.07906 µM)	relative viability ([2]; first compound 0.25 µM)	relative viability ([3]; first compound 0.08 µM)	relative viability ([3]; first compound 0.253 µM)	relative viability ([3]; first compound 0.8 µM)	relative viability ([3]; first compound 2.53 µM)	relative viability ([3]; first compound 8 µM)	relative viability ([4]; first compound 0.0025 µM)	relative viability ([4]; first compound 0.007906 µM)	relative viability ([4]; first compound 0.025 µM)	relative viability ([4]; first compound 0.07906 µM)	relative viability ([4]; first compound 0.25 µM)
LK-2	0.695	0.674	0.495	0.566	0.815	0.231	0.296	0.308	0.253	0.275	0.836	1.01	0.758	0.735	0.932	0.307	0.347	0.245	0.3	0.257
NCI-H2126	0.712	0.789	0.673	0.72	0.67	0.695	0.591	0.659	0.53	0.585	0.77	0.77	0.705	0.777	0.739	0.766	0.737	0.63	0.6	0.739
NCI-H3122	1.04	1.08	0.99	0.976	0.947	0.988	1.03	0.663	0.775	0.889	1.06	0.951	1.04	1	1.03	0.196	0.202	0.185	0.187	0.216
NCI-H1975	0.956	1.04	1	0.949	1.08	0.41	0.36	0.394	0.343	0.39	0.833	0.86	0.85	0.974	0.928	0.317	0.297	0.283	0.268	0.287
NCI-H1944	1.13	1.1	1.27	1.15	1.07	0.238	0.253	0.235	0.234	0.221	0.858	0.824	0.81	0.774	0.832	0.614	0.681	0.609	0.594	0.622
LU99A	0.592	0.542	0.522	0.583	0.567	0.584	0.502	0.533	0.508	0.462	1.08	0.909	0.938	0.984	1.12	0.18	0.175	0.159	0.211	0.179
SW 1573	0.869	0.905	0.869	0.804	0.782	0.451	0.681	0.402	0.501	0.597	1.2	1.26	1.09	1.05	1.09	0.759	1.05	0.773	0.853	0.981
HCC-44	0.855	0.713	0.629	0.684	0.74	–	–	–	–	–	0.946	1.02	0.979	1.04	1.02	0.633	0.643	0.675	0.599	0.694
